From patent US20260130928A1, “COMBINATION OF AKR1C3 ACTIVATED ANTICANCER PRODRUG COMPOUND AND ANALGESIC DRUG FOR TREATING CANCER PATIENTS ACCOMPANIED BY PAIN” (ASCENTAWITS PHARMACEUTICALS, LTD., priority 2022, published 2026)
Like-named read-outs stand apart in the source and are kept apart here.

Tests used:
H460 cell line = assay: In vitro cell proliferation inhibition with the drug combination (CTG method); type: cell-based, human; details: combined with AST-3424
Description: • a) H460 cells (human non-small lung cancer cells, AKR1C3 enzyme highly expressed) were cultured in RPMI-1640 medium, added with 10% FBS and 1% double antibody, and placed at 37° C. and 5% CO2 for culturing.
• a) The cells were routinely cultured until the cell saturation was 80%-90%, and when the required quantity was reached, the cells were collected. • b) The cells were resuspended with the corresponding medium and cell counts were performed to prepare a cell suspension with appropriate density. • c) The cell suspension was added to a 96-well plate with 100 μL per well, and the cell density was 2,000 cells per well. • d) The cells were incubated overnight in an incubator at 37° C. with 5% CO2. 1.1.3 Treating Cells with Compound (72 Hours)
AST-3424 alone: after 24 hours of cell seeding, AST-3424 was administered alone. Specifically, each well was supplemented with 99 μL of growth medium, and then added with 1 μL of the prepared AST-3424 solution to form different concentrations of AST-3424. The plate was shaken gently to ensure uniform mixing, and placed in an incubator at 37° C. with 5% CO2.
The cell plates were placed in the incubator for 72 hours.
1.1.4 Treating Cells with Compound (2 Hours) • a) Administrating single drug: after 24 hours of cell seeding, AST-3424 was administered alone. Specifically, each well was supplemented with 99 μL of growth medium, and then added with 1 μL of the prepared AST-3424 solution to form different concentrations of AST-3424. The plate was shaken gently to ensure uniform mixing, and placed in the incubator for 2 hours. […] The plate was shaken gently to ensure uniform mixing. After the plate was placed in the incubator for 2 hours, 1 μL of the prepared AST-3424 solution was added to form different concentrations of AST-3424. The plate was shaken gently to ensure uniform mixing, and placed in the incubator at 37° C. with 5% CO2 for another 2 hours. Then, the supernatant was discarded, and the remainder was washed twice with growth medium and added with 200 μL of fresh medium.
1.1.6 Detecting with CTG Method • a) The cell plate to be tested was placed at room temperature to equilibrium for 30 minutes, and 100 μL of culture medium was discarded from each well. • b) 25 μL CTG reagent (CelltiterGlo kit) was added to each well. The plate was placed on a fast shaker to shake for 2 minutes, and then placed at room temperature away from light for 30 minutes. • c) The chemiluminescent signal value was read with multifunctional microplate reader at reading time of 1000 ms.
IC50 was calculated with GraphPad Prism 5 software, and the IC50 (half maximal inhibitory concentration) of the compound was obtained using the following nonlinear fitting formula: […]

AKR1C3 = details: reported in literature; cited from earlier work
[1] = cited from earlier work
clinical = details: human, in vivo
[2] = Body weight / tolerance of mice in the human lung cancer NCI-H460 model
Description: BALB/c nude mice were subcutaneously inoculated with human lung cancer NCI-H460 cells to establish the subcutaneous transplant tumor model of human lung cancer. The experiment was assigned to seven groups, with 5 mice in each group: the test drug Celecoxib 50 mg/kg and 100 mg/kg groups, the AST-3424 2.5 mg/kg group, and different combination therapy groups of Celecoxib 50 mg/kg or 100 mg/kg and AST-3424 2.5 mg/kg, and the 0.5% sodium carboxymethylcellulose vehicle control group. […] The AST-3424 2.5 mg/kg group was administered by tail vein injection once a week for a total of three weeks, and observed for 7 days. In the combination therapy groups of Celecoxib 50 mg/kg or 100 mg/kg and AST-3424 2.5 mg/kg, Celecoxib was administered by gavage once a day for a total of 15 days, and AST-3424 was administered by tail vein injection once a week for a total of three weeks, and observed for 7 days.

[3] = test system: human lung cancer NCI-H460; assay: Pharmacodynamics in subcutaneous xenograft model of human lung cancer NCI-H460 (tumor volume, TGI); type: in vivo, BALB/c nude mice
Description: Measures of pharmacodynamics of AST-3424 monotherapy and combination therapy with Celecoxib were performed in a subcutaneous xenograft model of human lung cancer NCI-H460 established by using female BALB/c nude mice.
After the inoculation of tumor cell, tumor growth was routinely monitored, and tumor volume and mouse weight were measured. Evaluation of therapeutic efficiency was based on the relative tumor growth inhibition TGI (%). The specific results are shown in Table 3 and FIG. 3, and the Pharmacodynamics analysis data on Day 30 after inoculation (at the end of drug administration) are particularly given in Table 4.

[4] = read-out: Cmax converted to the molar concentration; celecoxib single dosage (200 mg) in healthy subjects
[5] = Group 2: Celecoxib 50 mg/kg QD×15 p.o., Day 37 after the inoculation of tumor cell
[6] = Group 3: Celecoxib 100 mg/kg QD×15 p.o., Day 37 after the inoculation of tumor cell
[7] = Group 2: Celecoxib 50 mg/kg QD×15 p.o., Day 30 after inoculation
[8] = Group 3: Celecoxib 100 mg/kg QD×15 p.o., Day 30 after inoculation

Which results are given for `CC(C)Cc1ccc(C(C)C(=O)O)cc1` (centres unmarked) [Ibuprofen]?
effect of the combination on the cell proliferation inhibitory activity of AST-3424 (H460 cell line): almost no effect; AKR1C3 inhibitory activity (AKR1C3): have AKR1C3 inhibitory activity; Cmax ([1]; ibuprofen reference preparation, single dose, fasting, healthy Chinese subjects): 19400 ng/mL; Cmax (clinical): 94 µM

Which “Mean body weight g (x ± S)” value ([2]; Group 2: Celecoxib 50 mg/kg QD×15 p.o., Day 9 after the inoculation of tumor cell) does the source give for `Cc1ccc(-c2cc(C(F)(F)F)nn2-c2ccc(S(N)(=O)=O)cc2)cc1` [Celecoxib] here?
The value was 24.8 ± 0.5 g.

What about the “Change of body weight (%)” value [2, 5] of the same compound?
Its value is 4.05%.

And the “Mean body weight g (x ± S)” value [2, 5]?
Its value is 25.8 ± 0.4 g.

And the “Mean body weight g (x ± S)” value ([2]; Group 3: Celecoxib 100 mg/kg QD×15 p.o., Day 9 after the inoculation of tumor cell)?
The value was 25.2 ± 0.5 g.

What about the “Change of body weight (%)” value [2, 6] of the same compound?
Its value is 2.28%.

What about the “Mean body weight g (x ± S)” value [2, 6] of the same compound?
The value was 25.8 ± 0.6 g.

What about the Cmax ([1]; celecoxib single dosage (200 mg) in healthy subjects, drug instructions) of the same compound?
The Cmax was 705 ng/mL.

What about the “Tumor volume (x ± S)” value ([3]; Group 2: Celecoxib 50 mg/kg QD×15 p.o., Day 9 after cell inoculation) of the same compound?
The value was 145.68 ± 12.36 mm^3.

What about the “Tumor volume (x ± S)” value ([3]; Group 2: Celecoxib 50 mg/kg QD×15 p.o., Day 12 after cell inoculation) of the same compound?
Its value is 162.55 ± 9.74 mm^3.

And the “Tumor volume (x ± S)” value ([3]; Group 2: Celecoxib 50 mg/kg QD×15 p.o., Day 16 after cell inoculation)?
The value was 175.22 ± 11.61 mm^3.

And the “Tumor volume (x ± S)” value ([3]; Group 2: Celecoxib 50 mg/kg QD×15 p.o., Day 19 after cell inoculation)?
The value was 214.83 ± 26.19 mm^3.

What about the “Tumor volume (x ± S)” value ([3]; Group 2: Celecoxib 50 mg/kg QD×15 p.o., Day 23 after cell inoculation) of the same compound?
The value was 361.15 ± 68.57 mm^3.

What about the “Tumor volume (x ± S)” value ([3]; Group 2: Celecoxib 50 mg/kg QD×15 p.o., Day 26 after cell inoculation) of the same compound?
The value was 471.39 ± 90.94 mm^3.

What about the “Tumor volume (x ± S)” value ([3]; Group 2: Celecoxib 50 mg/kg QD×15 p.o., Day 30 after cell inoculation) of the same compound?
Its value is 577.49 ± 102.95 mm^3.

What about the “Relative tumor volume (x ± S)” value [3, 7] of the same compound?
The value was 3.91 ± 0.45.

And the “T/C (%)” value [3, 7]?
The value was 70.13%.

What about the “TGI (%)” value [3, 7] of the same compound?
The value was 29.87%.

And the “Tumor volume (x ± S)” value ([3]; Group 2: Celecoxib 50 mg/kg QD×15 p.o., Day 30 after inoculation, in mm³)?
Its value is 577.49 ± 102.95.

And the “Tumor volume (x ± S)” value ([3]; Group 2: Celecoxib 50 mg/kg QD×15 p.o., Day 33 after cell inoculation)?
Its value is 655.39 ± 126.55 mm^3.

And the “Tumor volume (x ± S)” value ([3]; Group 2: Celecoxib 50 mg/kg QD×15 p.o., Day 37 after cell inoculation)?
Its value is 1053.12 ± 274.37 mm^3.

What about the “Tumor volume (x ± S)” value ([3]; Group 3: Celecoxib 100 mg/kg QD×15 p.o., Day 9 after cell inoculation) of the same compound?
Its value is 144.13 ± 11.94 mm^3.

What about the “Tumor volume (x ± S)” value ([3]; Group 3: Celecoxib 100 mg/kg QD×15 p.o., Day 12 after cell inoculation) of the same compound?
Its value is 166.97 ± 17.80 mm^3.

And the “Tumor volume (x ± S)” value ([3]; Group 3: Celecoxib 100 mg/kg QD×15 p.o., Day 16 after cell inoculation)?
Its value is 233.79 ± 48.62 mm^3.

And the “Tumor volume (x ± S)” value ([3]; Group 3: Celecoxib 100 mg/kg QD×15 p.o., Day 19 after cell inoculation)?
Its value is 331.06 ± 73.94 mm^3.

And the “Tumor volume (x ± S)” value ([3]; Group 3: Celecoxib 100 mg/kg QD×15 p.o., Day 23 after cell inoculation)?
The value was 479.72 ± 117.21 mm^3.

What about the “Tumor volume (x ± S)” value ([3]; Group 3: Celecoxib 100 mg/kg QD×15 p.o., Day 26 after cell inoculation) of the same compound?
Its value is 581.86 ± 130.92 mm^3.

And the “Tumor volume (x ± S)” value ([3]; Group 3: Celecoxib 100 mg/kg QD×15 p.o., Day 30 after cell inoculation)?
The value was 730.52 ± 183.64 mm^3.

What about the “Relative tumor volume (x ± S)” value [3, 8] of the same compound?
Its value is 4.86 ± 0.82.

What about the “T/C (%)” value [3, 8] of the same compound?
Its value is 87.16%.

And the “TGI (%)” value [3, 8]?
The value was 12.84%.

What about the “Tumor volume (x ± S)” value ([3]; Group 3: Celecoxib 100 mg/kg QD×15 p.o., Day 30 after inoculation, in mm³) of the same compound?
The value was 730.52 ± 183.64.

And the “Tumor volume (x ± S)” value ([3]; Group 3: Celecoxib 100 mg/kg QD×15 p.o., Day 33 after cell inoculation)?
Its value is 867.83 ± 225.15 mm^3.

And the “Tumor volume (x ± S)” value ([3]; Group 3: Celecoxib 100 mg/kg QD×15 p.o., Day 37 after cell inoculation)?
The value was 1459.88 ± 505.50 mm^3.

And the Cmax [4]?
Its Cmax is 1.85 µM.
